Experiments:
[1] = tested on: Echinochloa crus-galli (ECHCG); test: Flooded Echinochloa crus-galli, visual herbicidal damage (Biological Example 1, Test 125); format: in vivo; settings: 14 DAA
Description: (§1) Rice seeds, variety IR-64 (an indica type of rice), were sown in seed trays. After 7 days the resulting plants were transplanted as 3 groups of 2 plants, into pots containing a standard sandy loam soil saturated with water replicating swampy conditions. These were grown on for a further 9 days in a glasshouse bay (30/20° C. day/night; 18/6 hours light/dark; 75% humidity). Leptochloa chinensis (LEFCH) and Echinochloa crus-galli (ECHCG) were sown as 2 separate groups of approx 10-20 seeds into pots 13 days prior to application of the test substances, in the same glasshouse conditions as the rice. Therefore, each pot of weeds contained a group of LEFCH and a separate group of ECHCG. All pots of rice and all pots of weeds were flooded to 2-3 cm water depth the day prior to application of the test substances. Growth stages at time of application were as follows: Rice: from 2 leaves on the main stem up to tillering; ECHCG: from 2 leaves on the main stem up to tillering; LEFCH: 2-3 leaves.
(§2) Test solutions were prepared by mixing the appropriate aliquots of the test substances in deionised water to give the desired treatment concentration. Most of the test substances were used as formulated products. Specifically, compound A-4 was applied as the EC050 formulation disclosed in Formulation Example 1 herein (EC=emulsifiable concentrate). Compound A-7 was applied as the EC050 Formulation disclosed in Formulation Example 2 herein. Compound A-9 was applied as the EC050 Formulation disclosed in Formulation Example 3 herein. Pyroxasulfone (a comparator co-herbicide) was applied as the SC050 formulation disclosed in Reference Formulation Example 7 herein (SC=Suspension concentrate). Imazosulfuron (a comparator co-herbicide) was applied as a GR0.25 formulation (GR=granule).
(§3) The test substances which were pure active ingredient (e.g. propyrisulfuron & fenoxasulfone) (labelled as ‘Technical’ in the following results table), were prepared by dissolving in 10.56% Emulsogen EL™ (castor oil ethoxylate, CAS Registry number 61791-12-6), 42.22% N-methylpyrrolidone and 42.22% dipropylene glycol mono-ethyl ether to give a stock solution containing 5% of the test substance and 95% of (Emulsogen EL™, N-methylpyrrolidone and dipropylene glycol mono-ethyl ether).
(§4) Application of the test substances was made by pipetting the required amount of the test solution or the test formulation gently into the flood water of the appropriate pot.
(§5) The test plants were then grown on in the same glasshouse conditions, and watered twice daily keeping the flood water at a depth of 2-3 cm.
(§6) A visual assessment of the % herbicidal damage was made 7 & 14 days after application (DAA), and the results are presented herein as % visual herbicidal damage where 0=no damage to plants and 100=total kill.

[2] = tested on: Leptochloa chinensis (LEFCH); test: Flooded Leptochloa chinensis, visual herbicidal damage (Biological Example 1, Test 125); format: in vivo; settings: 14 DAA
Description: as §1, §2, §3, §4, §5, §6

Rice IR-64 = test: Flooded transplanted rice, visual herbicidal damage (Biological Example 1, Test 125); format: in vivo, variety IR-64 (indica); settings: 14 DAA, co-herbicide alone 10 g/ha
Description: as §1
Test solutions were prepared by mixing the appropriate aliquots of the test substances in deionised water to give the desired treatment concentration. Most of the test substances were used as formulated products. Specifically, compound A-4 was applied as the EC050 formulation disclosed in Formulation Example 1 herein (EC=emulsifiable concentrate). […]

[3] = compound of formula (I) 60 g/ha, no co-herbicide, 0=no damage, 100=total kill
[4] = compound of formula (I) 90 g/ha, no co-herbicide
[5] = compound of formula (I) 120 g/ha, no co-herbicide

Row | Compound | % damage to ECHCG [1, 3] | % damage to ECHCG [1, 4] | % damage to ECHCG [1, 5] | % damage to LEFCH [2, 3] | % damage to LEFCH [2, 4] | % damage to LEFCH [2, 5] | other results
1 | CCc1ccc(-c2ccc(Cl)cc2F)cc1C1C(=O)C(C)(C)OC(C)(C)C1=O [compound A-4] | 55% | 85% | 90% | 0% | 0% | 20% | 
2 | CCc1ccc(-c2ccc(Cl)cc2Cl)cc1C1=C(OC(=O)OC)C(C)(C)OC(C)(C)C1=O [compound A-9] | 15% | 40% | 70% | 80% | 80% | 90% | herbicidal activity against LEFCH ([2]; compound alone (EC formulation) at 60, 90 or 120 g/ha): 80-90%
3 | CCOc1cc(Cl)c(CS(=O)(=O)C2=NOC(C)(C)C2)cc1Cl [fenoxasulfone, reference compound] |  |  |  |  |  |  | % damage to ECHCG ([1]; co-herbicide alone 200 g/ha): 65%; % damage to LEFCH ([2]; co-herbicide alone 200 g/ha): 70%
4 | Cn1nc(C(F)(F)F)c(CS(=O)(=O)C2=NOC(C)(C)C2)c1OC(F)F [pyroxasulfone, reference compound] |  |  |  |  |  |  | % damage to ECHCG ([1]; co-herbicide alone 10 g/ha): 60%; % damage to Rice IR-64 (Rice IR-64): 45%; % damage to LEFCH ([2]; co-herbicide alone 10 g/ha): 70%
5 | CCCc1ccc2nc(Cl)c(S(=O)(=O)NC(=O)Nc3nc(OC)cc(OC)n3)n2n1 [propyrisulfuron, reference compound] |  |  |  |  |  |  | % damage to ECHCG ([1]; co-herbicide alone 80 g/ha): 80%; % damage to LEFCH ([2]; co-herbicide alone 80 g/ha): 0%
6 | COc1cc(OC)nc(NC(=O)NS(=O)(=O)c2c(Cl)nc3ccccn23)n1 [imazosulfuron, reference compound] |  |  |  |  |  |  | % damage to ECHCG ([1]; co-herbicide alone 80 g/ha): 50%; % damage to LEFCH ([2]; co-herbicide alone 80 g/ha): 0%
7 | CCc1ccc(-c2ccc(Cl)cc2Cl)cc1C1C(=O)C(C)(C)OC(C)(C)C1=O [compound A-7] | 35% | 55% | 65% | 0% | 5% | 5% | 

— patent publication US20130252811A1, “NOVEL HERBICIDE” (priority 2009, published 2013)
